Data from BindingDB's records for doi:10.1021/acs.jmedchem.8b01394 (Roche Pharma Research and Early Development, 2018).

Assay: Inhibition of RSV Long fusion protein assessed as protection against virus induced cytopathic effect in infected human Hep2 cells after 5 days by CCK8 assay

| Structure (SMILES) | EC50 |
| --- | --- |
| CS(=O)(=O)c1ccc2nc(N3CCCc4ccccc4C3)cc(NCCN)c2c1 | 5600 nM |
| NCC(O)CNc1cc(N2Cc3ccccc3C2)nc2ccccc12 (stereo not drawn) | > 100000 nM |
| OCC(O)CNc1cc(N2CCc3ccccc3C2)nc2ccccc12 (stereo not drawn) | 22000 nM |
| CC(O)CNc1cc(N2CCc3ccccc3C2)nc2ccccc12 (stereo not drawn) | > 100000 nM |
| NCCNc1cc(N2CCc3ccccc3C2)nc2ccccc12 | 2300 nM |
| NCCCCNc1cc(N2CCc3ccccc3C2)nc2ccccc12 | > 100000 nM |
| NC(=O)NCCNc1cc(N2CCc3ccccc3C2)nc2ccccc12 | 15000 nM |
| NCCNc1cc(N2CCCc3ccccc3C2)nc2ccccc12 | 200 nM |
| NCCNc1cc(N2CCCc3ccccc3C2)nc2cccc(Cl)c12 | 6600 nM |
| NCCNc1cc(N2CCCc3ccccc3C2)nc2cc(Cl)ccc12 | > 3200 nM |
| NCCNc1cc(N2CCCc3ccccc3C2)nc2c(Cl)cccc12 | 1100 nM |
| NCCNc1cc(N2CCCc3ccccc3C2)nc2ccc(F)cc12 | 1500 nM |
| NCCNc1cc(N2CCCc3ccccc3C2)nc2ccc(C(F)(F)F)cc12 | 1100 nM |
| Cc1ccc2nc(N3CCCc4cc(F)ccc4C3)cc(NCCN)c2c1 | 460 nM |
| NCCCNc1cc(N2CCc3ccccc3C2)nc2ccccc12 | 7800 nM |
| N=C(N)NCCNc1cc(N2CCc3ccccc3C2)nc2ccccc12 | 2300 nM |

Continued, values first:

| EC50 | Structure (SMILES) |
| --- | --- |
| 7 nM | Cc1ccc2nc(N3CCS(=O)(=O)c4ccccc4C3)cc(NCCCCN)c2c1 |
| 27 nM | Cc1ccc2nc(N3CCS(=O)(=O)c4ccccc4C3)cc(NCCCCCN)c2c1 |
| 11 nM | NCCNc1cc(N2CCS(=O)(=O)c3ccccc3C2)nc2ccccc12 |
| 230 nM | NCCNc1cc(N2CCOc3ccccc3C2)nc2ccccc12 |
| 62 nM | Cc1ccc2nc(N3CCC(F)(F)c4ccccc4C3)cc(NCCN)c2c1 |
| 220 nM | NCC(O)CNc1cc(N2CCc3ccccc3C2)nc2ccccc12 (stereo not drawn) |
| 220 nM | NCC(O)CNc1cc(N2CCCc3ccccc3C2)nc2ccccc12 (stereo not drawn) |
| 73 nM | Cc1ccc2nc(N3CCCc4ccccc4C3)cc(NCCN)c2c1 |
| 310 nM | Cc1ccc2nc(N3CC(=O)Nc4ccccc4C3)cc(NCCN)c2c1 |
| 100 nM | Cc1ccc2nc(N3CCCc4ccc(F)cc4C3)cc(NCCN)c2c1 |
| 1 nM | Cc1ccc2nc(N3CCS(=O)(=O)c4ccccc4C3)cc(NCCCN)c2c1 |
| 120 nM | NCCNc1cc(N2CCCc3ccccc3C2)nc2ccc(Cl)cc12 |
| 320 nM | COc1ccc2nc(N3CCCc4ccccc4C3)cc(NCCN)c2c1 |
| 230 nM | Cc1ccc2nc(N3CCNc4ccccc4C3)cc(NCCN)c2c1 |
| 4 nM | Cc1ccc2nc(N3CCS(=O)(=O)c4ccccc4C3)cc(NCCN)c2c1 |

Assay: Inhibition of RSV Long fusion protein assessed as decrease in virus induced syncytium formation in infected human HeLa/M cells

| EC50 | Structure (SMILES) |
| --- | --- |
| 0.16 nM | Cc1ccc(O)c(Cn2c(NC3CCN(CCN)CC3)nc3c(C)cccc32)n1 [JNJ 2408068] |

Assay: Inhibition of RSV Long fusion protein L138F mutant assessed as protection against virus induced cytopathic effect in infected human Hep2 cells after 5 days by CCK8 assay

| Structure (SMILES) | IC50 |
| --- | --- |
| NCCNc1cc(N2CCCc3ccccc3C2)nc2ccccc12 | 2300 nM |
